Assay results published in patent publication US20210070748A1, “INHIBITORS OF BRUTONS TYROSINE KINASE” (Pharmacyclics LLC, priority 2015, published 2021).

Experiments:
Type in all cases: biochemical
[1] = target: T1, ITK (Homo sapiens, UniProt Q08881); assay: Inhibition of a panel of kinases, in vitro HotSpot kinase assay: ITK; settings: D-compounds panel data; 1 μM ATP
T1 sequence (Q08881 1-620): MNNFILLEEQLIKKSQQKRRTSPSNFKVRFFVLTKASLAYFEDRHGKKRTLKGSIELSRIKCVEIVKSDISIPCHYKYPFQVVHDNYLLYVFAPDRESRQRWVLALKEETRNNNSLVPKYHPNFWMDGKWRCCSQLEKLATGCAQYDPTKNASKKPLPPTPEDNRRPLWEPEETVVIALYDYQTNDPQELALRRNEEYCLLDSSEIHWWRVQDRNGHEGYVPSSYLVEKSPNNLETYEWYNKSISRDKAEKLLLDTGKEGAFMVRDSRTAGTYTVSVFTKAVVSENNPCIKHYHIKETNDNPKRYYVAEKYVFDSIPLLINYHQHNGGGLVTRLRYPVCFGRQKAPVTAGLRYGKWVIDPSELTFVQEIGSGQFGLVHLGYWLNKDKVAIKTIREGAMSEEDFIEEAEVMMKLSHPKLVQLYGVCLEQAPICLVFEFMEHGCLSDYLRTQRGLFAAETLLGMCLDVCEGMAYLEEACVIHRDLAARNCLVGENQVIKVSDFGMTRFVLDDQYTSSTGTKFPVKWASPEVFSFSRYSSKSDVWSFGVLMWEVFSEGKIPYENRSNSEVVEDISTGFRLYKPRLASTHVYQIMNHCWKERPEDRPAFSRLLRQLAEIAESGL
Experimental: (§1) The degree of inhibition of a panel of kinases is determined using the in vitro HotSpot kinase assay (purified enzymes, ^33P-ATP, an appropriate substrate and 1 μM ATP).

[2] = target: EGFR (Homo sapiens, UniProt P00533); assay: Inhibition of a panel of kinases, in vitro HotSpot kinase assay: EGFR; settings: D-compounds panel data; 1 μM ATP
Sequence of EGFR (P00533 25-1210): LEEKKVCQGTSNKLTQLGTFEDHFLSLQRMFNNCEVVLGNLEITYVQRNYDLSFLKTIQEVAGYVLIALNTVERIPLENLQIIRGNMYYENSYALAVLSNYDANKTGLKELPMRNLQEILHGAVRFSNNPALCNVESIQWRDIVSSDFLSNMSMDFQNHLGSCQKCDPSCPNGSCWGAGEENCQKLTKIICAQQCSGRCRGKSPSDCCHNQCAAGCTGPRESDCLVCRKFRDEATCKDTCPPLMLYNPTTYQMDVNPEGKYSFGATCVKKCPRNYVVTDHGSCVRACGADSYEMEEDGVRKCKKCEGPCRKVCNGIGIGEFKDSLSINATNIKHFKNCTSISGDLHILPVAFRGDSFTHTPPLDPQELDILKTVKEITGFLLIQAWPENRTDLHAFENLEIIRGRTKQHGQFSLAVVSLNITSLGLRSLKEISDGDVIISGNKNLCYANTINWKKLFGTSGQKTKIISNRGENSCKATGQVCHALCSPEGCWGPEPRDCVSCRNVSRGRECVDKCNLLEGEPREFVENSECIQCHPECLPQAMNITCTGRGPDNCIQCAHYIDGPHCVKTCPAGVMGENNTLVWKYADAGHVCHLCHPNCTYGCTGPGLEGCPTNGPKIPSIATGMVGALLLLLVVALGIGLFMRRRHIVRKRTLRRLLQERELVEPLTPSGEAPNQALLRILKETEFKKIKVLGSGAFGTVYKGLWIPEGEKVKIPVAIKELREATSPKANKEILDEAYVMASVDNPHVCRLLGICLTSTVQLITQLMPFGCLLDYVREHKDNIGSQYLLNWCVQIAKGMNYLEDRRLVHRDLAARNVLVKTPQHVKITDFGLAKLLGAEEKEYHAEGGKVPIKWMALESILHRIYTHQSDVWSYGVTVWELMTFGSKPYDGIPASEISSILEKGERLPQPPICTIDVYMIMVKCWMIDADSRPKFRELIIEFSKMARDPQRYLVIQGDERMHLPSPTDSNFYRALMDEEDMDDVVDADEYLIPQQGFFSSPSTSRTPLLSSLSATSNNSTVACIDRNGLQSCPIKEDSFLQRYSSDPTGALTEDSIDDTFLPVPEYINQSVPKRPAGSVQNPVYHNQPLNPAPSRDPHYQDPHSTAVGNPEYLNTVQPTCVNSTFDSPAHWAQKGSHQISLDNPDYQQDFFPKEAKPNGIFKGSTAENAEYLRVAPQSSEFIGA
Experimental: as §1

[3] = target: LCK (Homo sapiens, UniProt P06239); assay: Inhibition of a panel of kinases, in vitro HotSpot kinase assay: LCK; settings: D-compounds panel data; 1 μM ATP; read-out: IC50 LCK
Sequence of LCK (P06239 whole entry): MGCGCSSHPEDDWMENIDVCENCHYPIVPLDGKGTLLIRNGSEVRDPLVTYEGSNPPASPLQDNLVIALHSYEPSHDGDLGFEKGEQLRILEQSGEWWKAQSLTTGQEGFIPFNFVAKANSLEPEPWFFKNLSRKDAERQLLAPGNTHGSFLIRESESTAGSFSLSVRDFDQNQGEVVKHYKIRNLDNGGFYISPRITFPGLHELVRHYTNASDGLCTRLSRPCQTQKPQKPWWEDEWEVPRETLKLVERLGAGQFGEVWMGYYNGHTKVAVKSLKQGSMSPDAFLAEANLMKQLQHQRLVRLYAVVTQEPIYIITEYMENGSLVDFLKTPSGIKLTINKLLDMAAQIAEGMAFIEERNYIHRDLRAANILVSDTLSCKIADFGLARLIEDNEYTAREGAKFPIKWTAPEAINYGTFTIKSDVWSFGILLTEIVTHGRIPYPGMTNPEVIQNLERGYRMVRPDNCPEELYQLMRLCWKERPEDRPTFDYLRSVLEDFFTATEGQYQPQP

[4] = target: T2, BTK-WT (Homo sapiens, UniProt Q06187); assay: Btk in vitro inhibitory activity (one of Method A TR-FRET, Method B electrophoretic mobility shift, Method C radiometric filter binding); settings: D-compounds panel data; read-out: IC50 BTK-WT
T2 construct: purified from insect cells as a full-length construct containing an N-terminal 6X-His tag; His6 (N); made in house; host or cells: insect cells (baculovirus Sf21 in Method B)
T2 sequence (Q06187 whole entry): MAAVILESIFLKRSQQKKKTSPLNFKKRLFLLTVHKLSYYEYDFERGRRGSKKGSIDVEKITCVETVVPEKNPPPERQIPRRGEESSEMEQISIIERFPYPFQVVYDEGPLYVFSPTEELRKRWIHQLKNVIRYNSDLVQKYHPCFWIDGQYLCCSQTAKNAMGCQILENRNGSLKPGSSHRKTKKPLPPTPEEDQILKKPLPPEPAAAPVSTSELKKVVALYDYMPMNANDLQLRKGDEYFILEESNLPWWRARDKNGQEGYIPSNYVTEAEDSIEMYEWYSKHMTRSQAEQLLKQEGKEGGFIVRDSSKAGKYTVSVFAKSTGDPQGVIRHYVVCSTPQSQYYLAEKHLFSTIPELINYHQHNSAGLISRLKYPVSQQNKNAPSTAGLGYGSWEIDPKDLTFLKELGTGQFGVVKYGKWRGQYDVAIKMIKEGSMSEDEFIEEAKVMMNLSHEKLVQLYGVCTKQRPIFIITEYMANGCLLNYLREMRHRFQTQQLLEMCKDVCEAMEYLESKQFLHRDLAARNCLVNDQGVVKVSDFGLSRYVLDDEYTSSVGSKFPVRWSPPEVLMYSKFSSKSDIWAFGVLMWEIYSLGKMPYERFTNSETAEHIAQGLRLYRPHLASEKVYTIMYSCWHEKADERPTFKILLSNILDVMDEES

[5] = target: T3, TEC (Homo sapiens, UniProt P42680); assay: Inhibition of a panel of kinases, in vitro HotSpot kinase assay: TEC; settings: D-compounds panel data; 1 μM ATP
T3 sequence (P42680 1-631): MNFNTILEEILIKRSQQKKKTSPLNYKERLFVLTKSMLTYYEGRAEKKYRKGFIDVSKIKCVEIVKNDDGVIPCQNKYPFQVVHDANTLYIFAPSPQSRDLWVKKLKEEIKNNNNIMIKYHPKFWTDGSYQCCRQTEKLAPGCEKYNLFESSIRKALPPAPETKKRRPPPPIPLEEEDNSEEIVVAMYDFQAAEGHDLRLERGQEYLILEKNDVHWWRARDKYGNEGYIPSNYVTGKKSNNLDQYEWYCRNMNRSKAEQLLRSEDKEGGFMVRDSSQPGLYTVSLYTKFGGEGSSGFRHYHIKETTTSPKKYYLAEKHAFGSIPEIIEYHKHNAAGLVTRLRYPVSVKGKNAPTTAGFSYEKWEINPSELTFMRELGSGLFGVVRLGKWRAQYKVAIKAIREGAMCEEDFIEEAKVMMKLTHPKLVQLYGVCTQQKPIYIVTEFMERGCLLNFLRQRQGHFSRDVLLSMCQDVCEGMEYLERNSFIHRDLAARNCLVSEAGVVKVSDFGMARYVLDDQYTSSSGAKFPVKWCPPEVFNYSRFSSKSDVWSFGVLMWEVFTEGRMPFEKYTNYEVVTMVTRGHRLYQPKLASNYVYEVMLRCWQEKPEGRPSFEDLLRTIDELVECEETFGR
Experimental: as §1

Row | Compound | IC50 [1] [µM] | IC50 [2] [µM] | IC50 [3] [µM] | IC50 [4] [µM] | IC50 [5] [µM]
1 | CN(C)C(=O)N[C@H]1CCCN(c2cnc(C(N)=O)c(Nc3ccc4ncccc4c3)n2)[C@@H]1CO (racemic) [Example D-64, trans 5-[3-[(dimethylcarbamoyl)amino]-2-(hydroxymethyl)piperidin-1-yl]-3-[(quinolin-6-yl)amino]pyrazine-2-carboxamide] | > 10 | > 10 | > 10 | 1 to 10 | 1 to 10
2 | CN(C)C(=O)N[C@H]1CCCN(c2cnc(C(N)=O)c(Nc3ccc4ncccc4c3)n2)[C@H]1CO (racemic) [Example D-65, cis 5-[3-[(dimethylcarbamoyl)amino]-2-(hydroxymethyl)piperidin-1-yl]-3-[(quinolin-6-yl)amino]pyrazine-2-carboxamide] | > 10 | > 10 | > 10 | 0.1 to 1 | 1 to 10
3 | Cn1cc(Nc2nc(N3CCC(NC(=O)c4ccc(C5CC5)cc4)C(O)C3)cnc2C(N)=O)cn1 (single isomer, unassigned) [Example D-28, Trans-5-[4-(4-cyclopropylbenzamido)-3-hydroxypiperidin-1-yl]-3-[(1-methyl-1H-pyrazol-4-yl)amino]pyrazine-2-carboxamide] | 1 to 10 | > 10 | > 10 | 1 to 10 | > 10
4 | Cn1cc(Nc2nc(N3CCC(NC(=O)c4ccc(C5CC5)cc4)C(O)C3)cnc2C(N)=O)cn1 (single isomer, unassigned) [Example D-29, Trans-5-[4-(4-cyclopropylbenzamido)-3-hydroxypiperidin-1-yl]-3-[(1-methyl-1H-pyrazol-4-yl)amino]pyrazine-2-carboxamide] | 1 to 10 | > 10 | > 10 | 0.1 to 1 | 1 to 10
5 | Cc1cc(Nc2nc(N3CCC[C@@H](NC(=O)c4ccc(C5CC5)cc4F)C3)cnc2C(N)=O)on1 [Example D-2, 5-[(3R)-3-(4-cyclopropyl-2-fluorobenzamido)piperidin-1-yl]-3-[(3-methyl-1,2-oxazol-5-yl)amino]pyrazine-2-carboxamide] | > 10 | > 10 | > 10 | 0.1 to 1 | 1 to 10
6 | NC(=O)c1ncc(N2CCC[C@@H](NC(=O)c3ccc(C4CC4)cc3F)C2)nc1Nc1cc(-c2ccccc2)ns1 [Example D-3, 5-[(3R)-3-(4-cyclopropyl-2-fluorobenzamido)piperidin-1-yl]-3-[(3-phenyl-1,2-thiazol-5-yl)amino]pyrazine-2-carboxamide] | > 10 | > 10 | > 10 | > 10 | > 10
7 | Cc1ncc(Nc2nc(N3CCC[C@@H](NC(=O)c4ccc(C5CC5)cc4F)C3)cnc2C(N)=O)s1 [Example D-4, 5-[(3R)-3-(4-cyclopropyl-2-fluorobenzamido)piperidin-1-yl]-3-[(2-methyl-1,3-thiazol-5-yl)amino]pyrazine-2-carboxamide] | 1 to 10 | > 10 | > 10 | 0.01 to 0.1 | 0.1 to 1
8 | C[C@H]1C[C@@H](NC(=O)c2ccc(C3CC3)cc2)CN(c2cnc(C(N)=O)c(Nc3cnn(C)c3)n2)C1 [Example D-30, 5-[(3R,5S)-3-(4-cyclopropylbenzamido)-5-methylpiperidin-1-yl]-3-[(1-methyl-1H-pyrazol-4-yl)amino]pyrazine-2-carboxamide] | 1 to 10 | > 10 | 0.1 to 1 | ≤ 0.01 | 0.01 to 0.1
9 | C[C@@H]1C[C@@H](NC(=O)c2ccc(C3CC3)cc2)CN(c2cnc(C(N)=O)c(Nc3cnn(C)c3)n2)C1 [Example D-31, 5-[(3R,5R)-3-(4-cyclopropylbenzamido)-5-methylpiperidin-1-yl]-3-[(1-methyl-1H-pyrazol-4-yl)amino]pyrazine-2-carboxamide] | 1 to 10 | > 10 | 1 to 10 | 0.01 to 0.1 | 0.1 to 1
10 | C[C@@H]1C[C@H](NC(=O)c2ccc(C3CC3)cc2)CN(c2cnc(C(N)=O)c(Nc3cnn(C)c3)n2)C1 [Example D-32, 5-[(3S,5R)-3-(4-cyclopropylbenzamido)-5-methylpiperidin-1-yl]-3-[(1-methyl-1H-pyrazol-4-yl)amino]pyrazine-2-carboxamide] | > 10 | > 10 | 1 to 10 | 0.1 to 1 | 0.1 to 1

Further lines, results first:

Row | IC50 [1] [µM] | IC50 [2] [µM] | IC50 [3] [µM] | IC50 [4] [µM] | IC50 [5] [µM] | Compound
11 | 1 to 10 | > 10 | 1 to 10 | 0.01 to 0.1 | 0.1 to 1 | Cn1cc(Nc2nc(N3CC[C@@H](O)[C@H](NC(=O)c4ccc(C5CC5)cc4)C3)cnc2C(N)=O)cn1 (racemic) [Example D-26, (racemic)-trans-5-[3-(4-cyclopropylbenzamido)-4-hydroxypiperidin-1-yl]-3-[(1-methyl-1H-pyrazol-4-yl)amino]pyrazine-2-carboxamide]
12 | 0.1 to 1 | 1 to 10 | 0.1 to 1 | ≤ 0.01 | 0.01 to 0.1 | Cn1cc(Nc2nc(N3C[C@H](CO)C[C@H](NC(=O)c4ccc(C5CC5)cc4)C3)cnc2C(N)=O)cn1 (racemic) [Example D-43, (racemic)-cis-5-[3-(4-cyclopropylbenzamido)-5-(hydroxymethyl)piperidin-1-yl]-3-[(1-methyl-1H-pyrazol-4-yl)amino]pyrazine-2-carboxamide]
13 | 1 to 10 | > 10 | 1 to 10 | 0.01 to 0.1 | 0.1 to 1 | CN(C)C(=O)N1CC[C@@H]2[C@H]1CCCN2c1cnc(C(N)=O)c(Nc2cnn(C)c2)n1 (racemic) [Example D-50, (racemic)-cis-5-[1-(dimethylcarbamoyl)-octahydro-1H-pyrrolo[3,2-b]pyridin-4-yl]-3-[(1-methyl-1H-pyrazol-4-yl)amino]pyrazine-2-carboxamide]
14 | 1 to 10 | > 10 | 0.1 to 1 | 0.01 to 0.1 | 0.1 to 1 | Cn1cc(Nc2nc(N3CCC[C@@H]4[C@H]3CCN4C(=O)c3ccccc3)cnc2C(N)=O)cn1 (racemic) [Example D-54, (racemic)-cis-5-{1-benzoyl-octahydro-1H-pyrrolo[3,2-b]pyridin-4-yl}-3-[(1-methyl-1H-pyrazol-4-yl)amino]pyrazine-2-carboxamide]
15 | 0.1 to 1 | 1 to 10 | 1 to 10 | ≤ 0.01 | 0.01 to 0.1 | C[C@@H]1[C@H](NC(=O)c2ccc(C3CC3)cc2F)CCCN1c1cnc(C(N)=O)c(Nc2cnn(C)c2)n1 [Example D-1, 5-[(2R,3R)-3-(4-cyclopropyl-2-fluorobenzamido)-2-methylpiperidin-1-yl]-3-[(1-methyl-1H-pyrazol-4-yl)amino]pyrazine-2-carboxamide]
16 | 0.1 to 1 | 0.1 to 1 | 0.1 to 1 | ≤ 0.01 | ≤ 0.01 | C[C@@H]1[C@H](N2Cc3cc(Br)ccc3C2=O)CCCN1c1cnc(C(N)=O)c(Nc2cnn(C)c2)n1 [Example D-27, 5-[(2R,3R)-3-(5-bromo-1-oxo-2,3-dihydro-1H-isoindol-2-yl)-2-methylpiperidin-1-yl]-3-[(1-methyl-1H-pyrazol-4-yl)amino]pyrazine-2-carboxamide]
17 | 0.01 to 0.1 | 0.1 to 1 | 0.01 to 0.1 | ≤ 0.01 | 0.01 to 0.1 | C[C@@H]1[C@H](NC(=O)N(C)C)CCCN1c1cnc(C(N)=O)c(Nc2ccc(OC3CCN(C)CC3)cc2)n1 [Example D-33, 5-[(2R,3R)-3-[(dimethylcarbamoyl)amino]-2-methylpiperidin-1-yl]-3-({4-[(1-methylpiperidin-4-yl)oxy]phenyl}amino)pyrazine-2-carboxamide]
